Test results from PMC6792352, “Limited Chemical Structural Diversity Found to Modulate Thyroid Hormone Receptor in the Tox21 Chemical Library” (Environmental Health Perspectives, 2019).
Where a name gives a salt, the structure may show the parent alone.

Assay: in vitro
Conditions: rat, gh3-tre-luc cells

Compound | CC50 at 24 h (AC50 (uM) modified / 1000) | further results
CCCCCCOC(C)=O [Hexyl acetate] | > 90 µM | –
C=CC(=O)OCCCCCC [Hexyl acrylate] | > 90 µM | –
CCCCCCOC(=O)c1ccccc1 [Hexyl benzoate] | > 90 µM | –
CCCCCCOC(=O)CCC [Hexyl butyrate] | > 90 µM | –
CCCCCC/C(C=O)=C\c1ccccc1 [Hexyl cinnamic aldehyde] | > 90 µM | –
CCCCCCOC(=O)CCCCC [Hexyl hexanoate] | > 90 µM | –
CCCCCCOC(=O)C(C)C [Hexyl isobutyrate] | > 90 µM | –
C=C(C)C(=O)OCCCCCC [Hexyl methacrylate] | > 90 µM | –
CCCCCCOC(=O)c1cccnc1 [Hexyl nicotinate] | > 50 µM | –
CCCCCCCC(=O)OCCCCCC [Hexyl octanoate] | > 90 µM | –
CCCCCCOC(=O)CC [Hexyl propanoate] | > 90 µM | –
CCCCCCOC(=O)c1ccccc1O [Hexyl salicylate] | > 90 µM | –
CC(CNC1CCCCC1)OC(=O)c1ccccc1 (centres unmarked) [Hexylcaine hydrochloride] | > 20 µM | –
CCCCCCOC(=O)c1ccc(O)cc1 [Hexylparaben] | 56.8 µM | –
C[C@H]1[C@H](c2ccc(Cl)cc2)SC(=O)N1C(=O)NC1CCCCC1 [Hexythiazox] | – | CC50 at 24 h (AC50 (uM) modified / 1000, Tox21_110001=Tox21_301050, viability, 1 nM T3 present, 24 h): 67.8 µM
O=C(O)CNC(=O)c1ccccc1 [Hippuric acid] | > 50 µM | –
NCCc1c[nH]cn1 [Histamine] | > 50 µM | –
CN1CCCN(C(c2ccccc2)c2ccc(Cl)cc2)CC1 (centres unmarked) [Homochlorcyclizine] | 7.44 µM | –
CN(C)CCc1ccc(O)cc1 [Hordenine] | > 50 µM | –
C/C=C1\[C@H]2C=C(C)C[C@]1(N)c1ccc(=O)[nH]c1C2 [Huperzine A] | > 50 µM | –
CCN(CC)CCNc1ccc(CO)c2sc3ccccc3c(=O)c12 [Hycanthone] | 2.88 µM | –
CC1(C)CNC(=NN=C(/C=C/c2ccc(C(F)(F)F)cc2)/C=C/c2ccc(C(F)(F)F)cc2)NC1 [Hydramethylnon] | 11.2 µM | –

Compound | CC50 at 24 h (AC50 (uM) modified / 1000) | further results
COc1ccc2c(c1OC)C(=O)O[C@@H]2[C@H]1c2cc3c(cc2CCN1C)OCO3 [Hydrastine] | – | CC50 at 24 h (AC50 (uM) modified / 1000, Tox21_110001=Tox21_200686, viability, 1 nM T3 present, 24 h): 6.92 µM
CN1CCc2cc3c(cc2C1O)OCO3 (centres unmarked) [Hydrastinine hydrochloride] | > 90 µM | –
NNC(=O)OCc1ccccc1 [Hydrazinecarboxylic acid, phenylmethyl ester] | > 90 µM | –
NS(=O)(=O)c1cc2c(cc1Cl)NCNS2(=O)=O [Hydrochlorothiazide] | > 90 µM | –
O=C(O)CCc1ccccc1 [Hydrocinnamic acid] | > 90 µM | –
COc1ccc2c3c1O[C@H]1C(=O)CC[C@H]4[C@@H](C2)N(C)CC[C@]314 [Hydrocodone phosphate (2:3) monohydrate] | > 50 µM | –
CCCC(=O)O[C@]1(C(=O)CO)CC[C@H]2[C@@H]3CCC4=CC(=O)CC[C@]4(C)[C@H]3[C@@H](O)C[C@@]21C [Hydrocortisone 17-butyrate] | > 50 µM | –
C[C@]12CCC(=O)C=C1CC[C@@H]1[C@@H]2[C@@H](O)C[C@@]2(C)[C@H]1CC[C@]2(O)C(=O)COC(=O)CCC(=O)O [Hydrocortisone 21-hemisuccinate sodium salt] | > 50 µM | –
CC(=O)OCC(=O)[C@@]1(O)CC[C@H]2[C@@H]3CCC4=CC(=O)CC[C@]4(C)[C@H]3[C@@H](O)C[C@@]21C [Hydrocortisone acetate] | > 50 µM | –
CCCC(=O)O[C@]1(C(=O)COC(=O)CC)CC[C@H]2[C@@H]3CCC4=CC(=O)CC[C@]4(C)[C@H]3[C@@H](O)C[C@@]21C [Hydrocortisone buteprate] | > 50 µM | –
C[C@]12CCC(=O)C=C1CC[C@@H]1[C@@H]2[C@@H](O)C[C@@]2(C)[C@H]1CC[C@]2(O)C(=O)COP(=O)(O)O [Hydrocortisone sodium phosphate] | > 50 µM | –
CCCCC(=O)O[C@]1(C(=O)CO)CC[C@H]2[C@@H]3CCC4=CC(=O)CC[C@]4(C)[C@H]3[C@@H](O)C[C@@]21C [Hydrocortisone valerate] | > 50 µM | –
C[C@]12CCC(=O)C=C1CC[C@@H]1[C@@H]2[C@@H](O)C[C@@]2(C)[C@H]1CC[C@]2(O)C(=O)CO [Hydrocortisone] | > 90 µM | –
COc1c2c(cc3c1OCO3)CCN(C)C2 [Hydrocotarnine hydrobromide] | > 20 µM | –
NS(=O)(=O)c1cc2c(cc1C(F)(F)F)NCNS2(=O)=O [Hydroflumethiazide] | > 20 µM | –
COc1ccc(OC)cc1 [Hydroquinone dimethyl ether] | > 90 µM | –
CC(N)Cc1ccc(O)cc1 (centres unmarked) [Hydroxyamphetamine hydrobromide] | > 50 µM | –
CCN(CCO)CCCC(C)Nc1ccnc2cc(Cl)ccc12 (centres unmarked) [Hydroxychloroquine sulfate] | > 50 µM | –
CC(CC=O)CCCC(C)(C)O (centres unmarked) [Hydroxycitronella] | > 90 µM | –
COC(CC(C)CCCC(C)(C)O)OC (centres unmarked) [Hydroxycitronellal dimethyl acetal] | > 90 µM | –
O=C1NCCN1CCO [Hydroxyethyl imidazolidinone] | > 100 µM | –
OCCOC[C@H]1O[C@H](OCCO)[C@H](OCCO)[C@@H](OCCO)[C@@H]1OCCO [Hydroxyethyl starch] | > 50 µM | –

Compound | CC50 at 24 h (AC50 (uM) modified / 1000) | further results
CC(C)(O)C(=O)Nc1ccc([N+](=O)[O-])c(C(F)(F)F)c1 [Hydroxyflutamide] | > 90 µM | –
O=S(O)CO [Hydroxymethanesulfinic acid monosodium salt dihydrate] | > 50 µM | –
C=C(C)C(=O)OC(C)CO (centres unmarked) [Hydroxypropyl methacrylate] | > 90 µM | –
N=C(N)c1ccc(/C=C/c2ccc(C(=N)N)cc2O)cc1 [Hydroxystilbamidine bis(methanesulfonate)] | > 50 µM | –
Nc1c2c(nc3ccccc13)CCCC2O (centres unmarked) [Hydroxytacrine maleate] | > 50 µM | –
NC(=O)NO [Hydroxyurea] | > 90 µM | –
CC1=C2[C@@H]([C@H](C)CC[C@H]2/C=C(\C)C(=O)O)[C@H](O)C1 [Hydroxyvalerenic acid] | > 90 µM | –
CN[C@H]1C[C@@H](N)[C@H](O)[C@@H](O[C@@H]2O[C@H](CO)[C@H](O)[C@@H]3OC4(O[C@H]23)O[C@H]([C@@H](N)CO)[C@H](O)[C@H](O)[C@H]4O)[C@@H]1O (some centres unmarked) [Hygromycin B] | > 50 µM | –
Cc1cc(O)no1 [Hymexazol] | > 100 µM | –
O=c1[nH]cnc2nc[nH]c12 [Hypoxanthine] | > 50 µM | –
CC(CN1CC(=O)NC(=O)C1)N1CC(=O)NC(=O)C1 (centres unmarked) [ICRF-159] | > 90 µM | –
CCCCCN(C)CCC(O)(P(=O)(O)O)P(=O)(O)O [Ibandronate sodium] | > 50 µM | –
CC[C@H]1C[C@@H]2C[C@H]3c4[nH]c5ccc(OC)cc5c4CCN(C2)[C@@H]13 [Ibogaine hydrochloride] | 62.4 µM | –
CC(C)C(=O)c1c(C(C)C)nn2ccccc12 [Ibudilast] | > 50 µM | –
CC(C)Cc1ccc(CC(=O)O)cc1 [Ibufenac] | > 50 µM | –
CC(C)Cc1ccc(C(C)C(=O)O)cc1 (centres unmarked) [Ibuprofen] | > 90 µM | –
CCCCCCCN(CC)CCCC(O)c1ccc(NS(C)(=O)=O)cc1 (centres unmarked) [Ibutilide fumarate] | 21.5 µM | –
CCC(C)OC(=O)N1CCCCC1CCO (centres unmarked) [Icaridin] | > 90 µM | –
CC(=O)[C@]1(O)Cc2c(O)c3c(c(O)c2[C@@H](O[C@H]2C[C@H](N)[C@H](O)[C@H](C)O2)C1)C(=O)c1ccccc1C3=O [Idarubicin hydrochloride] | 0.162 µM | –
c1ccc2c(c1)OCC(C1=NCCN1)O2 (centres unmarked) [Idazoxan] | 7.8 µM | –
COC1=C(OC)C(=O)C(CCCCCCCCCCO)=C(C)C1=O [Idebenone] | 35.2 µM | –
O=c1[nH]c(=O)n([C@H]2C[C@H](O)[C@@H](CO)O2)cc1I [Idoxuridine] | > 20 µM | –

Compound | CC50 at 24 h (AC50 (uM) modified / 1000) | further results
O=C1C2CC3CC1CC(O)(C3)C2 [Idramantone] | > 50 µM | –
O=C(/C=C/c1ccccc1)NCCO [Idrocilamide] | > 50 µM | –
CC(C(O)c1ccc(O)cc1)N1CCC(Cc2ccccc2)CC1 (centres unmarked) [Ifenprodil] | 19.6 µM | –
O=P1(NCCCl)OCCCN1CCCl (centres unmarked) [Ifosfamide] | – | CC50 at 24 h (AC50 (uM) modified / 1000, Tox21_110001=Tox21_110539, viability, 1 nM T3 present, 24 h): > 20 µM; CC50 at 24 h (AC50 (uM) modified / 1000, Tox21_110001=Tox21_201815, viability, 1 nM T3 present, 24 h): > 90 µM
CC(C)CCCCCCc1ccc(OCCOCCO)cc1 [Igepal CO-890] | > 100 µM | –
CS(=O)(=O)Nc1cc2occ(NC=O)c(=O)c2cc1Oc1ccccc1 [Iguratimod] | > 50 µM | –
CC(=O)S[C@H](C(=O)N[C@H]1Cc2ccccc2[C@H]2CCC[C@@H](C(=O)O)N2C1=O)C(C)C [Ilepatril] | > 90 µM | –
CCCCCCCCCCCCCCCCSCC(COC)COP(=O)([O-])OCC[N+](C)(C)C (centres unmarked) [Ilmofosine] | 19.3 µM | –
CNC(=O)[C@H](Cc1c[nH]c2ccccc12)NC(=O)[C@@H](CC(=O)NO)CC(C)C [Ilomastat] | 1.28 µM | –
COc1cc(C(C)=O)ccc1OCCCN1CCC(c2noc3cc(F)ccc23)CC1 [Iloperidone] | 15.2 µM | –
CC#CCC(C)[C@H](O)/C=C/[C@@H]1[C@H]2C/C(=C/CCCC(=O)O)C[C@H]2C[C@H]1O (some centres unmarked) [Iloprost] | > 50 µM | –
Cc1ccc(NC(=O)c2ccc(CN3CCN(C)CC3)cc2)cc1Nc1nccc(-c2cccnc2)n1 [Imatinib mesylate] | 18.5 µM | –
COCc1cnc(C2=NC(C)(C(C)C)C(=O)N2)c(C(=O)O)c1 (centres unmarked) [Imazamox] | > 90 µM | –
Cc1cnc(C2=NC(=O)C(C)(C(C)C)N2)c(C(=O)O)c1 (centres unmarked) [Imazapic] | > 90 µM | –
CC(C)C1(C)N=C(c2ncccc2C(=O)O)NC1=O (centres unmarked) [Imazapyr] | > 90 µM | –
CC(C)C1(C)N=C(c2nc3ccccc3cc2C(=O)O)NC1=O (centres unmarked) [Imazaquin] | > 90 µM | –
CCc1cnc(C2=NC(C)(C(C)C)C(=O)N2)c(C(=O)O)c1 (centres unmarked) [Imazethapyr] | > 90 µM | –
O=C1CCC(c2ccc(-n3ccnc3)cc2)=NN1 [Imazodan] | > 50 µM | –
N=C1NC(=O)N2CC12 (centres unmarked) [Imexon] | > 50 µM | –
